According to US20240150755A1, “MODULATING REGULATORY T CELL FUNCTION IN AUTOIMMUNE DISEASE AND CANCER” (Salk Institute for Biological Studies, priority 2021, published 2024):

What was measured:
Rag1^−/− mice = experiment: Adoptive T cell transfer-induced colitis model; format: in vivo, mouse
Source text: Treg cells were transduced by retrovirus expressing sgRNA targeting gene of interest, and cultured in X-VIVO® complete media and IL-2 (500 U/ml). Four days after transduction, the NGFR^+ transduced Treg cells were FACS sorted before transferred into recipient mice. To induce colitis, 2 million effector T cells (CD45.1^+CD4^+CD25^−CD45RB^hi) and 1 million sgRNA transduced Treg cells (CD45.2^+ CD4^+ Thy1.1^+ NGFR^+) were mixed together and transferred into Rag1^−/− recipient mice. The body weight of recipient mice was monitored weekly for signs of wasting symptoms. Mice were harvested 7 weeks after T cell transfer. Spleens were used for profiling immune cell populations by FACS. Colons were collected for histopathological analysis.
Histopathological analysis was performed in a blinded manner and scored using the following criteria: eight parameters were used, including (i) the degree of inflammatory infiltrate in the LP (0-3); (ii) Goblet cell loss (0-2); (iii) reactive epithelial hyperplasia/atypia with nuclear changes (0-3); (iv) the number of IELs in the epithelial crypts (0-3); (v) abnormal crypt architecture (distortion, branching, atrophy, crypt loss) (0-3); (vi) number of crypt abscesses (0-2); (vii) mucosal erosion to frank ulcerations (0-2) and (viii) submucosal spread to transmural involvement (0-2). The severity of lesion was scored independently in 3 regions (proximal, middle and distal colon) over a maximal score of 20. The overall colitis score was based as the average of each regional score (maximal score of 20).

H3K27ac = H3K27ac ChIP-seq in Treg cells; format: cell-based, mouse; conditions: sgRNA transduced Treg cells
Protocol: Treg cells were collected and cross-linked first in 3 mM disuccinimidyl glutarate (DSG) in 1×PBS for thirty minutes then in 1% formaldehyde for another ten minutes, both at RT, for chromatin binding protein ChIP or in 1% formaldehyde only for histone modification ChIP. After quenching the excess cross-linker with a final concentration of 125 mM glycine, the cells were washed in 1× PBS, pelleted, flash-frozen in liquid nitrogen, and stored at −80° C. Cell pellets were thawed on ice and incubated in lysis solution (50 mM HEPES-KOH pH 8, 140 mM NaCl, 1 mM EDTA, 10% glycerol, 0.5% NP40, 0.25% Triton X-100) for ten minutes. The isolated nuclei were washed with wash solution (10 mM Tris-HCl pH 8, 1 mM EDTA, 0.5 mM EGTA, 200 mM NaCl) and shearing buffer (0.1% SDS, 1 mM EDTA, 10 mM Tris-HCl pH 8) then sheared in a Covaris® E229 sonicator for ten minutes to generate DNA fragments between ˜200-1000 base pairs (bp). After clarification of insoluble material by centrifugation, the chromatin was immunoprecipitated overnight at 4° C. with antibodies against Foxp3, Smarca4, Brd9, Phf10 or H3K27ac. […]
Single-end 50 bp or paired-end 42 bp reads were aligned to mouse genome mm10 using STAR alignment tool (V2.5) (Dobin et al., Bioinformatics 29:15-21, 2013). […]

[1] = test system: Brd9-dependent Foxp3 binding sites; experiment: ATAC-seq chromatin accessibility in Treg cells; format: cell-based, mouse; conditions: sgBrd9 vs sgNT Treg cells; 61/1699 sites
Protocol: ATAC-seq was performed according to previously published protocol (Corces et al., Nat Methods 14:959-962, 2017). Briefly, Tregs transduced with either sgNT or sgBrd9 were subjected to Ficoll™ gradient purification to remove dead cells and ensure capture of cells that were 99% viable. 50,000 Treg cells were collected in duplicates per genotype and washed first with cold 1×PBS then with Resuspension buffer (RSB; 10 mM Tris-HCl pH 7.4, 10 mM NaCl, 3 mM MgCl2). Cells were lysed in 50 μL of RSB supplemented with 0.1% NP40, 0.01% Digitonin and 0.1% Tween 20 for 3 minutes on ice then diluted with 1 mL of RSB with 0.1% Tween 20. […]
ATAC-seq data analysis used the following tools and versions: cutadapt (v2.4), samtools (v1.9), Picard (v1.7.1), BWA (v0.7.12), macs2 (v2.1.2), and HOMER (v4.11). Paired end 42 bp reads were trimmed using cutadapt to remove Nextera™ adapter sequences then aligned to the reference mouse genome mm10 using BWA. The following were filtered out using Picard and samtools: duplicate reads, mitochondrial reads, low quality reads (Q<20), and improperly paired or unpaired reads. Quality was assessed by calculating Fraction of Reads In Peaks ([…]) which were >40% for all samples. TSS enrichment was determined using mm10 Refseq TSSs. […]

sgBrd9: sgRNA targeting Brd9, ATTAACCGGTTTCTCCCGGG (SEQ ID NO: 12) (expressed or natural sequence)
protection of recipient mice from body weight loss (Rag1^−/− mice; co-transfer of Teff and sgRNA transduced Treg cells into Rag1^−/− mice): failed to protect recipients from losing weight
Foxp3^+ cell frequencies within the CD45.2^+CD4^+ transferred Treg population (Rag1^−/− mice; end point of colitis model): reduced Foxp3^+ cell frequencies
colitis pathology (Rag1^−/− mice; seven weeks after transfer, vs control Treg cells): significant colitis pathology
H3K27ac at Brd9-dependent Foxp3 sites (H3K27ac): reduction in H3K27ac
Brd9-dependent Foxp3 binding sites with significant reduction in chromatin accessibility [1]: 3.5%
